Test: Deblocking of substituted Bsmoc p-chloroaniline (R-Bsmoc-PCA) urethanes with piperidine, 1H-NMR monitoring
Type: physicochemical
Conditions: for t1/2 2 eq piperidine in CDCl3 (approximate half time for the reaction of R-Bsmoc-PCA urethane and piperidine): 2 eq piperidine in CDCl3, 1H-NMR analysis, approximate values
Excerpt: As an electron-withdrawing substituent the MeSO2 group also enhances the stability of the benzo[b]thiophene-2-methyl system toward acidic reagents and in addition enhances the speed of the deblocking step. […] Tables 1A and 1B show the approximate half times for the reaction of substituted Bsmoc p-chloroaniline derivatives with 2 eq of piperidine in CDCl3 according to ^1H-NMR analysis.
Tables 1A and 1B. Approximate half times for the reaction of R-Bsmoc-PCA urethane and piperidine

Structure (SMILES)	t1/2 2 eq piperidine in CDCl3 (approximate half time for the reaction of R-Bsmoc-PCA urethane and piperidine) [min]	speed of deblocking relative to the unsubstituted analog (Bsmoc-NHC6H4-Cl-p) (treatment with piperidine in CDCl3, NMR monitoring)
CC1=C(COC(=O)Nc2ccc(Cl)cc2)S(=O)(=O)c2ccccc21 [3-Me-Bsmoc-PCA]	360	–
Cc1cccc2c1C=C(COC(=O)Nc1ccc(Cl)cc1)S2(=O)=O [4-Me-Bsmoc-PCA]	150	–
COc1cc2c(cc1OC)S(=O)(=O)C(COC(=O)Nc1ccc(Cl)cc1)=C2 [5,6-MeO-Bsmoc-PCA]	3 to 4	–
CC(=O)Nc1ccc2c(c1)C=C(COC(=O)Nc1ccc(Cl)cc1)S2(=O)=O [5-Ac—NH-Bsmoc-PCA]	3	–
O=C(Nc1ccc(Cl)cc1)OCC1=Cc2cc(Cl)ccc2S1(=O)=O [5-Cl-Bsmoc-PCA]	2	–
Cc1ccc2c(c1)C=C(COC(=O)Nc1ccc(Cl)cc1)S2(=O)=O [5-Me-Bsmoc-PCA]	6 to 7	–
CS(=O)(=O)c1ccc2c(c1)C=C(COC(=O)Nc1ccc(Cl)cc1)S2(=O)=O [5-MeSO2-Bsmoc-PCA]	<1	about six times more readily
O=C(Nc1ccc(Cl)cc1)OCC1=Cc2cc([N+](=O)[O-])ccc2S1(=O)=O [5-NO2-Bsmoc-PCA]	<1	–
O=C(Nc1ccc(Cl)cc1)OCC1=Cc2ccc(Cl)cc2S1(=O)=O [6-Cl-Bsmoc-PCA]	2	–
CS(=O)(=O)c1ccc2c(c1)S(=O)(=O)C(COC(=O)Nc1ccc(Cl)cc1)=C2 [6-MeSO2-Bsmoc-PCA]	<1	–
O=C(Nc1ccc(Cl)cc1)OCC1=Cc2ccccc2S1(=O)=O [Bsmoc-PCA, reference compound]	6 to 7	–
